Several values for one entry are separate records, joined by “and”; a condition that tells them apart may be missing. Identical values can stand only once. Like-named read-outs stand apart in the source and are kept apart here.
Legend:
[1] = tested on: halofuginone-induced P. falciparum (elevated proline homeostasis); test: P. falciparum ABS growth assay, SYBR Green, 72 h, halofuginone-induced parasites; type: cell-based, Plasmodium falciparum; conditions: for parasite growth, replicate wells (Fig 1b): Halofuginone-Induced, listed as NCP26 (3)
Procedure, shortened: (§1)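 Dd2-derived P. falciparum lines (HFGR-I, halofuginone-induced) at 1% parasitemia and 1% hematocrit in RPMI + 0.5% Albumax were exposed to compounds in triplicate dose-response for 72 h. Growth was read as SYBR Green 1 fluorescence, with 10 μM dihydroartemisinin as kill control and compound-free wells as growth control.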

PfcProRS = molecular target: T1, PfcProRS (Plasmodium falciparum, UniProt Q8I5R7); type: binding; conditions: for dose-response signal (normalized), SI Fig 8: single replicates, listed as NCP26 (3)
T1 construct: made in house; host or cells: E. coli SoluBL-21

[2] = tested on: HFGR-I P. falciparum (elevated proline homeostasis and PfcProRS^L482H); test: P. falciparum ABS growth assay, SYBR Green, 72 h, HFGR-I parasites; type: cell-based, Plasmodium falciparum; conditions: for parasite growth, replicate wells (Fig 1b): HFGR-I
Procedure, shortened: as §1

T1 sequence (Q8I5R7 249-746): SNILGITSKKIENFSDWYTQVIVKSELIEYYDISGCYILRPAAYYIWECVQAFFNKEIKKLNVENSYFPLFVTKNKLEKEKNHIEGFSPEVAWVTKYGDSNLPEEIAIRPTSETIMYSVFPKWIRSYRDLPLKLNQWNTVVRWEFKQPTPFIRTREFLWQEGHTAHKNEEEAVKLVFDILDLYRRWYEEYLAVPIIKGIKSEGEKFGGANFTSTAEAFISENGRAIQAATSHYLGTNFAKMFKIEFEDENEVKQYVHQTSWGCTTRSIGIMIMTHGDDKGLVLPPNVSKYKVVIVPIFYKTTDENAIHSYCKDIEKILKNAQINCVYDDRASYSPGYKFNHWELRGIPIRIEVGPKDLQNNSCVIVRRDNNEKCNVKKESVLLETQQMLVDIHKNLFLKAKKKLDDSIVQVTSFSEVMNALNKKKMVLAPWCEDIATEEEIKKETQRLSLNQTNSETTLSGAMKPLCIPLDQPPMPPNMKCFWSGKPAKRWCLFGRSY

## O=C(NC1Cc2ccccc2C1)c1nccnc1NC(=O)N1CCCCC1 [NCP26]
[1]; Log[inhibitor] (M) -6.505
  parasite growth, replicate wells (Fig 1b): 0.00E+00 (2×) and -1.00E+00
[1]; Log[inhibitor] (M) -6.806
  parasite growth, replicate wells (Fig 1b): 1.80E+01 (2×) and 1.90E+01
[1]; Log[inhibitor] (M) -7.107
  parasite growth, replicate wells (Fig 1b): 9.50E+01 and 8.90E+01 and 9.10E+01
[1]; Log[inhibitor] (M) -7.408
  parasite growth, replicate wells (Fig 1b): 1.05E+02 and 1.12E+02 and 1.07E+02
[1]; Log[inhibitor] (M) -7.709
  parasite growth, replicate wells (Fig 1b): 1.09E+02 and 1.08E+02 and 1.10E+02
[1]; Log[inhibitor] (M) -8.010
  parasite growth, replicate wells (Fig 1b): 9.90E+01 and 1.01E+02 and 1.04E+02
[1]; Log[inhibitor] (M) -6.204
  dose-response value, Replicates 1-3 (SI Fig 2e): -2.0
PfcProRS
  binding mode with respect to substrates (ATP, proline): proline-uncompetitive
  fold increased affinity in the presence of proline: 52 fold
PfcProRS; Log[inhibitor] (M) -6.301
  dose-response signal (normalized), SI Fig 8: -4.45E-02 and 1.59E-01 and 5.71E-02 and 4.55E-02 and 8.14E-02 and 4.48E-02
PfcProRS; Log[inhibitor] (M) -6.602
  dose-response signal (normalized), SI Fig 8: 1.17E-01 and 1.10E-01 and 1.62E-01 and 1.06E-01 and 1.14E-01 and 3.45E-02
PfcProRS; Log[inhibitor] (M) -6.904
  dose-response signal (normalized), SI Fig 8: -7.84E-03 and 4.23E-02 and 1.85E-01 and 6.33E-02 and -1.22E-02 and 1.04E-01
PfcProRS; Log[inhibitor] (M) -7.205
  dose-response signal (normalized), SI Fig 8: 1.30E-01 and 1.69E-01 and 1.26E-02 and 6.32E-02 and 1.43E-01 and 5.72E-02
PfcProRS; Log[inhibitor] (M) -7.506
  dose-response signal (normalized), SI Fig 8: 2.32E-01 and 1.89E-01 and 1.64E-01 and 2.04E-01 and 7.73E-02 and 1.02E-01
PfcProRS; Log[inhibitor] (M) -7.796
  dose-response signal (normalized), SI Fig 8: 3.08E-01 and 3.64E-01 and 4.11E-01 and 4.02E-01 and 3.25E-01 and 3.10E-01
PfcProRS; Log[inhibitor] (M) -8.097
  dose-response signal (normalized), SI Fig 8: 5.23E-01 and 5.87E-01 and 9.12E-01 and 7.05E-01 and 5.54E-01 and 7.03E-01
PfcProRS; Log[inhibitor] (M) -8.407
  dose-response signal (normalized), SI Fig 8: 7.84E-01 and 7.32E-01 and 7.98E-01 and 9.93E-01 and 8.87E-01 and 8.26E-01
PfcProRS; Log[inhibitor] (M) -8.708
  dose-response signal (normalized), SI Fig 8: 9.57E-01 and 1.08E+00 and 9.98E-01 and 8.58E-01 and 8.40E-01 and 9.70E-01
PfcProRS; Log[inhibitor] (M) -9.018
  dose-response signal (normalized), SI Fig 8: 9.48E-01 and 9.31E-01 and 1.13E+00 and 1.15E+00 and 1.02E+00 and 9.66E-01
PfcProRS; Log[inhibitor] (M) -9.319
  dose-response signal (normalized), SI Fig 8: 9.22E-01 and 1.00E+00 and 1.07E+00 and 1.03E+00 and 1.09E+00 and 9.57E-01
PfcProRS; Log[inhibitor] (M) -9.620
  dose-response signal (normalized), SI Fig 8: 1.10E+00 and 1.04E+00 (2×) and 9.95E-01 and 1.13E+00 and 9.21E-01
PfcProRS; Log[inhibitor] (M) -9.921
  dose-response signal (normalized), SI Fig 8: 9.45E-01 and 1.02E+00 and 1.05E+00 and 9.10E-01 and 9.27E-01 and 9.41E-01
PfcProRS; Log[inhibitor] (M) -10.097
  dose-response signal (normalized), SI Fig 8: 1.10E+00 and 1.01E+00 and 1.17E+00 and 9.78E-01 and 8.32E-01 and 1.04E+00
PfcProRS; Log[inhibitor] (M) -10.585
  dose-response signal (normalized), SI Fig 8: 1.14E+00 and 1.18E+00 and 8.42E-01 and 8.75E-01 and 9.70E-01 and 1.02E+00
PfcProRS; SI Fig 16a, values on -log scale
  PfcProRS -- best Kd: 8.599
[2]; Log[inhibitor] (M) -4.699
  parasite growth, replicate wells (Fig 1b): 0.00E+00
  dose-response value, Replicates 1-3 (SI Fig 2f): 0
[2]; Log[inhibitor] (M) -5.000
  parasite growth, replicate wells (Fig 1b): 0.00E+00
  dose-response value, Replicates 1-3 (SI Fig 2f): 0
[2]; Log[inhibitor] (M) -5.301
  parasite growth, replicate wells (Fig 1b): 0.00E+00
  dose-response value, Replicates 1-3 (SI Fig 2f): 0
[2]; Log[inhibitor] (M) -5.602, listed as NCP26 (3)
  parasite growth, replicate wells (Fig 1b): 0.00E+00 and 1.00E+00 (2×)
[2]; Log[inhibitor] (M) -5.903
  parasite growth, replicate wells (Fig 1b): 0.00E+00
  dose-response value, Replicates 1-3 (SI Fig 2f): 0
[2]; Log[inhibitor] (M) -6.204
  parasite growth, replicate wells (Fig 1b): 0.00E+00
  dose-response value, Replicates 1-3 (SI Fig 2f): 0
[2]; Log[inhibitor] (M) -6.505
  parasite growth, replicate wells (Fig 1b): 1.00E+00
  dose-response value, Replicates 1-3 (SI Fig 2f): 1
[2]; Log[inhibitor] (M) -6.806, listed as NCP26 (3)
  parasite growth, replicate wells (Fig 1b): 7.00E+00 (2×) and 6.00E+00
[2]; Log[inhibitor] (M) -7.107, listed as NCP26 (3)
  parasite growth, replicate wells (Fig 1b): 3.90E+01 and 3.70E+01 (2×)
[2]; Log[inhibitor] (M) -7.408, listed as NCP26 (3)
  parasite growth, replicate wells (Fig 1b): 9.90E+01 and 1.07E+02 and 1.00E+02
[2]; Log[inhibitor] (M) -7.709, listed as NCP26 (3)
  parasite growth, replicate wells (Fig 1b): 1.11E+02 (2×) and 1.00E+02
[2]; Log[inhibitor] (M) -8.010, listed as NCP26 (3)
  parasite growth, replicate wells (Fig 1b): 1.08E+02 and 1.07E+02 and 1.06E+02

From paper PMC9403976, “Elucidating the path to Plasmodium prolyl-tRNA synthetase inhibitors that overcome halofuginone resistance” (Nature Communications, 2022)
